Results reported in patent US20260137707A1, “METHODS OF MODULATING ATXN2 EXPRESSION” (University of Utah Research Foundation, priority 2022, published 2026).
Where a name gives a salt, the structure may show the parent alone. Read-outs that look alike come from different tables or passages of the source.

Tests used:
ATXN2-luc [1] = conditions: H2 cells
ATXN2-luc [2] = test: cells; conditions: for activity at 10 µM: read-out: Luc at 10 μm; for activity at 1 µM: read-out: Luc at 1 μm
[3] = Table 1, 24 hrs, single 10 μM dose, Z-score of luciferase

Row | Compound | SD from Mean (ATXN2-luc [1]; [3]) [SD] | other results
1 | CC(N/C(=N\C#N)Nc1ccncc1)C(C)(C)C (stereo not shown) | −4.875 | SD from Mean (ATXN2-luc [1]; Table 5S, pilot screen, 10 μM): −4.875 SD; activity at 10 µM (ATXN2-luc [2]): 17%
2 | O=C1C=CC(=O)c2ccccc21 [4-NAPHTHOQUINONE] | −3.613 | –
3 | CCCCCCCCCOc1ccc2[nH]cc(CCN)c2c1 [5-Nonyloxytryptamine] | −3.607 | activity at 10 µM (ATXN2-luc [2]): 5%
4 | C[n+]1c2cc(N)ccc2cc2ccc(N)cc21.[Cl-] [ACRIFLA VINIUM HYDROCHLORIDE, ACRIFLAVINIUM HYDROCHLORIDE] | −4.148 | –
5 | CCCCCCc1ccc(O)cc1O.Nc1c2ccccc2nc2ccccc12 [ACRISORCIN] | −3.600 | –
6 | CC[C@@]1(O)C[C@H](O[C@H]2C[C@H](N(C)C)[C@H](O)[C@H](C)O2)c2c(cc3c(c2O)C(=O)c2c(O)cccc2C3=O)[C@H]1C(=O)OC [AKLAVINE HYDROCHLORIDE] | −3.741 | –
7 | Nc1c2ccccc2nc2ccccc12 [AMINACRINE] | −4.103 | –
8 | N=c1ccn2c(n1)O[C@H]1[C@H](O)[C@@H](CO)O[C@H]12 [ANCITABINE HYDROCHLORIDE] | −3.031 | –
9 | CC(=O)O[C@@H]1C[C@@]2(C)[C@H](c3ccoc3)C[C@H]3O[C@]32[C@]2(C)C(=O)C(O)=C3C(C)(C)C(=O)C=C[C@]3(C)[C@@H]12 [ANTHOTHECOL] | −3.020 | –
10 | COc1ccc(C[C@H]2NC[C@H](O)[C@H]2OC(C)=O)cc1 [Anisomycin] | −4.015 | –
11 | CC(C)/N=c1\cc2n(-c3ccc(Cl)cc3)c3ccccc3nc-2cc1Nc1ccc(Cl)cc1 [CLOFAZIMINE] | −2.792 | –
12 | C[C@@H]1O[C@@H](O[C@H]2CC[C@]3(C=O)[C@H]4CC[C@]5(C)[C@@H](C6=CC(=O)OC6)CC[C@]5(O)[C@@H]4CC[C@]3(O)C2)[C@H](O)[C@H](O)[C@H]1O [CONVALLATOXIN] | −3.689 | SD from Mean (ATXN2-luc [1]; Table 5S, pilot screen, 10 μM): −3.689 SD; activity at 1 µM (ATXN2-luc [2]): 12%; activity at 10 µM (ATXN2-luc [2]): 11%
13 | CO[C@H]1C=C[C@@]23c4cc5c(cc4CN(C[C@@H]2O)[C@H]3C1)OCO5 [CRINAMINE] | −3.651 | –
14 | CO[C@H]1C[C@H](O[C@H]2CC[C@]3(C=O)[C@H]4CC[C@]5(C)[C@@H](C6=CC(=O)OC6)CC[C@]5(O)[C@@H]4CC[C@]3(O)C2)O[C@H](C)[C@H]1O [CYMARIN] | −4.099 | SD from Mean (ATXN2-luc [1]; Table 5S, pilot screen, 10 μM): −4.099 SD; activity at 1 µM (ATXN2-luc [2]): 14%; activity at 10 µM (ATXN2-luc [2]): 16%
15 | Nc1ccn([C@@H]2O[C@H](CO)[C@@H](O)[C@@H]2O)c(=O)n1 [CYTARABINE] | −3.681 | –
16 | CC[C@@]1(O)C(=O)OCc2c1cc1n(c2=O)Cc2cc3ccccc3nc2-1 [Camptothecine (S+)] | −5.283 | –
17 | CC(C)=CCc1c(O)cc2occ(-c3ccc4c(c3)OCO4)c(=O)c2c1O [DERRUBONE] | −3.621 | SD from Mean (ATXN2-luc [1]; Table 5S, pilot screen, 10 μM): −3.621 SD; activity at 1 µM (ATXN2-luc [2]): 11%; activity at 10 µM (ATXN2-luc [2]): 15%
18 | C[C@H]1O[C@@H](O[C@H]2[C@@H](O)C[C@H](O[C@H]3[C@@H](O)C[C@H](O[C@H]4CC[C@@]5(C)[C@H](CC[C@@H]6[C@@H]5CC[C@]5(C)[C@@H](C7=CC(=O)OC7)CC[C@]65O)C4)O[C@@H]3C)O[C@@H]2C)C[C@H](O)[C@@H]1O [DIGITOXIN] | −4.100 | SD from Mean (ATXN2-luc [1]; Table 5S, pilot screen, 10 μM): −4.100 SD; activity at 1 µM (ATXN2-luc [2]): 27%; activity at 10 µM (ATXN2-luc [2]): 19%
19 | COc1cccc2c1C(=O)c1c(O)c3c(c(O)c1C2=O)C[C@@](O)(C(C)=O)C[C@@H]3O[C@H]1C[C@H](N)[C@H](O)[C@H](C)O1 [Daunorubicin hydrochloride] | −4.155 | –
20 | C[C@]12CC[C@H](O)C[C@H]1CC[C@@H]1[C@@H]2CC[C@]2(C)[C@@H](C3=CC(=O)OC3)CC[C@]12O [Digitoxigenin] | −3.629 | SD from Mean (ATXN2-luc [1]; Table 5S, pilot screen, 10 μM): −3.629 SD; activity at 1 µM (ATXN2-luc [2]): 38%; activity at 10 µM (ATXN2-luc [2]): 13%
21 | C[C@]12CC[C@H](O)C[C@H]1CC[C@@H]1[C@@H]2C[C@@H](O)[C@]2(C)[C@@H](C3=CC(=O)OC3)CC[C@]12O [Digoxigenin] | −3.264 | SD from Mean (ATXN2-luc [1]; Table 5S, pilot screen, 10 μM): −3.264 SD; activity at 1 µM (ATXN2-luc [2]): 90%; activity at 10 µM (ATXN2-luc [2]): 22%
22 | Cc1c2ccncc2c(C)c2c1[nH]c1ccccc12 [Ellipticine] | −3.485 | –
23 | CC[C@H]1CN2CCc3cc(OC)c(OC)cc3[C@@H]2C[C@@H]1C[C@H]1NCCc2cc(OC)c(OC)cc21 [Emetine dihydrochloride] | −4.840 | SD from Mean (ATXN2-luc [1]; Table 5S, pilot screen, 10 μM): −4.840 SD; activity at 1 µM (ATXN2-luc [2]): 18%; activity at 10 µM (ATXN2-luc [2]): 19%

Row | Compound | SD from Mean (ATXN2-luc [1]; [3]) [SD] | other results
24 | CC(C)=CCC[C@]1(C)C=Cc2c(O)c3c(c(CC=C(C)C)c2O1)O[C@]12C(=C[C@@H]4C[C@H]1C(C)(C)O[C@@]2(C/C=C(/C)C(=O)O)C4=O)C3=O [GAMBOGIC ACID] | −4.841 | –
25 | CC(=O)O[C@H]1CC[C@@]2(C)[C@H](CC[C@@H]3[C@@H]2CC[C@]2(C)[C@@H](C4=CC(=O)OC4)[C@@H](OC(C)=O)C[C@]32O)C1 [GITOXIGENIN DIACETATE] | −4.261 | SD from Mean (ATXN2-luc [1]; Table 5S, pilot screen, 10 μM): −4.261 SD; activity at 1 µM (ATXN2-luc [2]): 27%; activity at 10 µM (ATXN2-luc [2]): 21%
26 | COC(=O)C[C@](O)(CCCC(C)(C)O)C(=O)O[C@@H]1C(OC)=C[C@]23CCCN2CCc2cc4c(cc2[C@H]13)OCO4 [HOMOHARRINGTONINE] | −3.117 | –
27 | CC(=O)[C@]1(O)Cc2c(O)c3c(c(O)c2[C@@H](O[C@H]2C[C@H](N)[C@H](O)[C@H](C)O2)C1)C(=O)c1ccccc1C3=O [IDARUBICIN HCl] | – | SD from Mean (ATXN2-luc [1]; Table 1, 24 hrs, single 10 μM dose, Z-score of luciferase, HCl): −2.944 SD
28 | CC(=O)[C@]1(O)Cc2c(O)c3c(c(O)c2[C@@H](O[C@H]2C[C@H](N)[C@H](O)[C@H](C)O2)C1)C(=O)c1ccccc1C3=O [IDARUBICIN] | −2.719 | –
29 | CC(C)[N+](C)(CCC(C(N)=O)(c1ccccc1)c1ccccc1)C(C)C [ISOPROPAMIDE IODIDE] | −4.073 | –
30 | CNC1CC(c2ccc(Cl)c(Cl)c2)c2ccccc21 (stereo not shown) [Indatraline] | – | activity at 10 µM (ATXN2-luc [2]): 6%
31 | Cl.Cl.O=C1c2c(O)ccc(O)c2C(=O)c2c(NCCNCCO)ccc(NCCNCCO)c21 [MITOXANTHRONE HYDROCHLORIDE] | −4.333 | –
32 | O=C1c2c(O)ccc(O)c2C(=O)c2c(NCCNCCO)ccc(NCCNCCO)c21 [Mitoxantrone dihydrochloride] | −3.666 | –
33 | O=C(Nc1ccc([N+](=O)[O-])cc1Cl)c1cc(Cl)ccc1O [Niclosamide] | −4.393 | –
34 | N=C1C=CC(=C(c2ccc(N)cc2)c2ccc(N)cc2)C=C1 [PARAROSANILINE PAMOATE] | −2.740 | –
35 | O=C1C=C2C(=CCOC2O)O1 (stereo not shown) [PATULIN] | −3.651 | –
36 | COC(=O)[C@]1(C)CC[C@]2(C)CC[C@]3(C)C4=CC=C5C(=CC(=O)C(O)=C5C)[C@]4(C)CC[C@@]3(C)[C@@H]2C1 [PRISTIMERIN] | −3.883 | –
37 | COc1ccc(C[C@H](N)C(=O)N[C@H]2[C@@H](O)[C@H](n3cnc4c(N(C)C)ncnc43)O[C@@H]2CO)cc1 [PUROMYCIN HYDROCHLORIDE] | – | SD from Mean (ATXN2-luc [1]; Table 1, 24 hrs, single 10 μM dose, Z-score of luciferase, HYDROCHLORIDE): −3.716 SD
38 | COc1cc(/C=C/C(=O)N2CCC=CC2=O)cc(OC)c1OC [Piperlongumine] | −2.973 | –
39 | COc1ccc(C[C@H](N)C(=O)N[C@H]2[C@@H](O)[C@H](n3cnc4c(N(C)C)ncnc43)O[C@@H]2CO)cc1 [Puromycin dihydrochloride] | – | SD from Mean (ATXN2-luc [1]; Table 1, 24 hrs, single 10 μM dose, Z-score of luciferase, dihydrochloride): −4.723 SD
40 | CCN(CC)CCCC(C)Nc1c2ccc(Cl)cc2nc2ccc(OC)cc12 (stereo not shown) [Quinacrine dihydrochloride dihydrate] | −3.270 | –
41 | CC[C@@]1(O)C[C@H](O)c2c(cc3c(c2O)C(=O)c2c(O)ccc(O)c2C3=O)[C@H]1C(=O)OC [RUTILANTINONE] | −2.722 | –
42 | C[C@@H]1O[C@@H](O[C@H]2C[C@@H](O)[C@]3(CO)[C@@H]4[C@@H](O)C[C@]5(C)[C@H](C6=CC(=O)OC6)CC[C@@]5(O)[C@H]4CC[C@]3(O)C2)[C@H](O)[C@H](O)[C@@H]1O [Strophantine octahydrate] | −3.624 | –
43 | COc1cc([C@@H]2c3cc4c(cc3[C@@H](O[C@@H]3O[C@@H]5CO[C@@H](c6cccs6)O[C@H]5[C@H](O)[C@H]3O)[C@H]3COC(=O)[C@H]23)OCO4)cc(OC)c1O [TENIPOSIDE] | −2.832 | –
44 | C[C@H]1CC[C@]2(NC1)O[C@H]1C[C@H]3[C@@H]4CC[C@H]5C[C@@H](O[C@@H]6O[C@H](CO)[C@H](O[C@@H]7O[C@H](CO)[C@@H](O)[C@H](O[C@@H]8OC[C@@H](O)[C@H](O)[C@H]8O)[C@H]7O[C@@H]7O[C@H](CO)[C@@H](O)[C@H](O)[C@H]7O)[C@H](O)[C@H]6O)CC[C@]5(C)[C@H]4CC[C@]3(C)[C@H]1[C@@H]2C [TOMATINE] | −4.999 | –
45 | Lycorine hydrochloride | −2.968 | –
46 | THIMEROSAL | −5.645 | –
